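Values below derive from 48-hour exposures of cells grown in 96-well plates, with endpoints linearly interpolated between the two concentrations bracketing the appropriate inhibition level. At the GI50, growth is halved.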 Activity calls are given as the source filed them. Cut-off read from the data, not from the text of the source: active = GI50 up to about 1.1 µM and inactive = higher.
How the values were obtained:
Experiment in all cases: NCI anticancer screen, dose series, 48 h
NCI-H23 = system: NCI-H23
NCI-H460 = system: NCI-H460
SK-MEL-2 = system: SK-MEL-2
MDA-MB-231 = system: MDA-MB-231
T47D = system: T47D
SK-MEL-28 = system: SK-MEL-28
Hs-578T = system: Hs-578T
OVCAR-3 = system: OVCAR-3
786-0 = system: 786-0
LOX IMVI = system: LOX IMVI
TK-10 = system: TK-10
SNB-19 = system: SNB-19
EKVX = system: EKVX
NCI/ADR-RES = system: NCI/ADR-RES
DU-145 = system: DU-145
A549 = system: A549
Malme-3M = system: Malme-3M
UACC-62 = system: UACC-62
CAKI-1 = system: CAKI-1
KM12 = system: KM12
SF-268 = system: SF-268
MDA-N = system: MDA-N
SN12C = system: SN12C
K562 = system: K562
CCRF-CEM = system: CCRF-CEM
SK-OV-3 = system: SK-OV-3
COLO 205 = system: COLO 205
RPMI-8226 = system: RPMI-8226
MDA-MB-435 = system: MDA-MB-435
RXF 393 = system: RXF 393
HOP-62 = system: HOP-62
OVCAR-8 = system: OVCAR-8
NCI-H226 = system: NCI-H226
SF-295 = system: SF-295
SK-MEL-5 = system: SK-MEL-5
HCC 2998 = system: HCC 2998
SNB-75 = system: SNB-75
MOLT-4 = system: MOLT-4
U-251 = system: U-251
UO-31 = system: UO-31
OVCAR-4 = system: OVCAR-4
HL-60 = system: HL-60
HT-29 = system: HT-29
MCF7 = system: MCF7
ACHN = system: ACHN
NCI-H522 = system: NCI-H522
HOP-92 = system: HOP-92
SR = system: SR
A498 = system: A498
HCT-116 = system: HCT-116
SF-539 = system: SF-539
PC-3 = system: PC-3
HCT-15 = system: HCT-15
UACC-257 = system: UACC-257
IGROV-1 = system: IGROV-1
M14 = system: M14
OVCAR-5 = system: OVCAR-5
SW-620 = system: SW-620
BT-549 = system: BT-549

With Clc1cccc(Cl)c1C1ON=C(c2ccccc2)N1C12CC3CC(CC(C3)C1)C2 (centres undefined) the GI50 (NCI-H23) was 31 µM (inactive), the GI50 (NCI-H460) was 13.7 µM (inactive) and the GI50 (SK-MEL-2) was 12.1 µM (inactive). The GI50 (MDA-MB-231) was 10.1 µM (inactive), the GI50 (T47D) was 11.4 µM (inactive) and the GI50 (SK-MEL-28) was 45 µM (inactive). For the same compound, the GI50 (Hs-578T) was 24.2 µM (inactive), the GI50 (OVCAR-3) was 9.38 µM (inactive) and the GI50 (786-0) was 32.4 µM (inactive). For the same compound, the GI50 (LOX IMVI) was 7.26 µM (inactive), the GI50 (TK-10) was 63.7 µM (inactive) and the GI50 (SNB-19) was 67.5 µM (inactive). For the same compound, the GI50 (EKVX) was 37.4 µM (inactive), the GI50 (NCI/ADR-RES) was 15.2 µM (inactive) and the GI50 (DU-145) was 76.9 µM (inactive). For the same compound, the GI50 (A549) was 25.2 µM (inactive), the GI50 (Malme-3M) was 14.8 µM (inactive) and the GI50 (UACC-62) was 24 µM (inactive). For the same compound, the GI50 (CAKI-1) was 40.9 µM (inactive), the GI50 (KM12) was 1.63 µM (inactive) and the GI50 (SF-268) was 82 µM (inactive). The GI50 (MDA-N) was 37.6 µM (inactive), the GI50 (SN12C) was 41.6 µM (inactive) and the GI50 (K562) was 6.7 µM (inactive). For the same compound, the GI50 (CCRF-CEM) was 10.4 µM (inactive), the GI50 (SK-OV-3) was 98.2 µM (inactive) and the GI50 (COLO 205) was 11.9 µM (inactive). The GI50 (RPMI-8226) was 6.64 µM (inactive), the GI50 (MDA-MB-435) was 17.9 µM (inactive) and the GI50 (RXF 393) was 39.1 µM (inactive). The GI50 (HOP-62) was 31.6 µM (inactive), the GI50 (OVCAR-8) was 32.7 µM (inactive) and the GI50 (NCI-H226) was 43.3 µM (inactive). For the same compound, the GI50 (SF-295) was > 100 µM (inactive), the GI50 (SK-MEL-5) was 4.57 µM (inactive) and the GI50 (HCC 2998) was 13.8 µM (inactive). For the same compound, the GI50 (SNB-75) was 0.387 µM (active), the GI50 (MOLT-4) was 7.31 µM (inactive) and the GI50 (U-251) was 62.5 µM (inactive). The GI50 (UO-31) was 58.5 µM (inactive), the GI50 (OVCAR-4) was 25.3 µM (inactive) and the GI50 (HL-60) was 3.3 µM (inactive). For the same compound, the GI50 (HT-29) was 29.1 µM (inactive), the GI50 (MCF7) was 0.121 µM (active) and the GI50 (ACHN) was 11.2 µM (inactive). For the same compound, the GI50 (NCI-H522) was 32.2 µM (inactive), the GI50 (HOP-92) was 13.3 µM (inactive) and the GI50 (SR) was 5.35 µM (inactive). The GI50 (A498) was 56.4 µM (inactive), the GI50 (HCT-116) was 10.9 µM (inactive) and the GI50 (SF-539) was 66.1 µM (inactive). The GI50 (PC-3) was 4.11 µM (inactive), the GI50 (HCT-15) was 9.75 µM and the GI50 (UACC-257) was 3.29 µM (inactive). The GI50 (IGROV-1) was 29.1 µM (inactive), the GI50 (M14) was 22.3 µM (inactive) and the GI50 (OVCAR-5) was > 100 µM (inactive).
O=[N+]([O-])/C(C(Cl)=C(Cl)Cl)=C(/Cl)Sc1ccccc1 was tested, and the GI50 (NCI-H23) was 1.77 µM (inactive), the GI50 (NCI-H460) was 17.1 µM (inactive) and the GI50 (SK-MEL-2) was 13.3 µM (inactive). For the same compound, the GI50 (MDA-MB-231) was 1.86 µM (inactive), the GI50 (T47D) was 3.03 µM (inactive) and the GI50 (SK-MEL-28) was 1.72 µM (inactive). For the same compound, the GI50 (Hs-578T) was 3.15 µM (inactive), the GI50 (OVCAR-3) was 2.05 µM (inactive) and the GI50 (786-0) was 1.31 µM (inactive). The GI50 (LOX IMVI) was 1.87 µM (inactive), the GI50 (TK-10) was 2.67 µM (inactive) and the GI50 (SNB-19) was 17.7 µM (inactive). For the same compound, the GI50 (EKVX) was 15.6 µM (inactive), the GI50 (NCI/ADR-RES) was 1.08 µM (active) and the GI50 (DU-145) was 3.32 µM (inactive). The GI50 (A549) was 3.6 µM (inactive), the GI50 (Malme-3M) was 1.6 µM (inactive) and the GI50 (UACC-62) was 1.8 µM (inactive). The GI50 (CAKI-1) was 2.51 µM (inactive), the GI50 (KM12) was 17.9 µM (inactive) and the GI50 (SF-268) was 2.29 µM (inactive). The GI50 (MDA-N) was 1.59 µM (inactive), the GI50 (SN12C) was 1.81 µM (inactive) and the GI50 (K562) was 0.59 µM (active). The GI50 (CCRF-CEM) was 0.185 µM (active), the GI50 (SK-OV-3) was 20.1 µM (inactive) and the GI50 (COLO 205) was 1.23 µM (inactive). For the same compound, the GI50 (RPMI-8226) was 0.306 µM (active), the GI50 (MDA-MB-435) was 1.86 µM (inactive) and the GI50 (RXF 393) was 2.62 µM (inactive). The GI50 (HOP-62) was 3.54 µM (inactive), the GI50 (OVCAR-8) was 0.255 µM (active) and the GI50 (NCI-H226) was 7.76 µM (inactive). For the same compound, the GI50 (SF-295) was 20 µM (inactive), the GI50 (SK-MEL-5) was 2.12 µM (inactive) and the GI50 (HCC 2998) was 2.7 µM (inactive). For the same compound, the GI50 (SNB-75) was 15 µM (inactive), the GI50 (MOLT-4) was 0.361 µM (active) and the GI50 (U-251) was 2.25 µM (inactive). The GI50 (UO-31) was 1.42 µM (inactive), the GI50 (OVCAR-4) was 1.62 µM (inactive) and the GI50 (HL-60) was 0.139 µM (active). For the same compound, the GI50 (HT-29) was 2.24 µM (inactive), the GI50 (MCF7) was 1.43 µM (inactive) and the GI50 (ACHN) was 2.08 µM (inactive). For the same compound, the GI50 (NCI-H522) was 1.23 µM (inactive), the GI50 (HOP-92) was 2.05 µM (inactive) and the GI50 (SR) was 0.378 µM (active). For the same compound, the GI50 (A498) was 2 µM (inactive), the GI50 (HCT-116) was 1.31 µM (inactive) and the GI50 (SF-539) was 1.99 µM (inactive). For the same compound, the GI50 (SW-620) was 0.307 µM (active), the GI50 (PC-3) was 2.26 µM (inactive) and the GI50 (HCT-15) was 2.15 µM. The GI50 (UACC-257) was 1.25 µM (inactive), the GI50 (IGROV-1) was 2.01 µM (inactive) and the GI50 (M14) was 1.82 µM (inactive). For the same compound, the GI50 (OVCAR-5) was 2 µM (inactive).
For CCOC(=O)c1c(SCc2cc(=O)[nH]c(=O)[nH]2)n(-c2ccccc2)c(=S)n(-c2ccccc2)c1=O, the GI50 (NCI-H460) was > 100 µM (inactive), the GI50 (SK-MEL-2) was > 100 µM (inactive) and the GI50 (MDA-MB-231) was > 100 µM (inactive). The GI50 (T47D) was > 100 µM (inactive), the GI50 (SK-MEL-28) was > 100 µM (inactive) and the GI50 (OVCAR-3) was > 100 µM (inactive). The GI50 (786-0) was > 100 µM (inactive), the GI50 (TK-10) was > 100 µM (inactive) and the GI50 (SNB-19) was > 100 µM (inactive). For the same compound, the GI50 (BT-549) was > 100 µM (inactive), the GI50 (EKVX) was > 100 µM (inactive) and the GI50 (NCI/ADR-RES) was > 100 µM (inactive). The GI50 (DU-145) was > 100 µM (inactive), the GI50 (A549) was > 100 µM (inactive) and the GI50 (Malme-3M) was > 100 µM (inactive). The GI50 (UACC-62) was > 100 µM (inactive), the GI50 (CAKI-1) was > 100 µM (inactive) and the GI50 (KM12) was > 100 µM (inactive). For the same compound, the GI50 (SF-268) was > 100 µM (inactive), the GI50 (MDA-N) was > 100 µM (inactive) and the GI50 (SN12C) was > 100 µM (inactive). The GI50 (K562) was > 100 µM (inactive), the GI50 (CCRF-CEM) was > 100 µM (inactive) and the GI50 (SK-OV-3) was > 10 µM (inactive). The GI50 (COLO 205) was > 100 µM (inactive), the GI50 (RPMI-8226) was > 100 µM (inactive) and the GI50 (MDA-MB-435) was > 100 µM (inactive). The GI50 (RXF 393) was > 100 µM (inactive), the GI50 (HOP-62) was > 100 µM (inactive) and the GI50 (OVCAR-8) was > 100 µM (inactive). The GI50 (SK-MEL-5) was > 100 µM (inactive), the GI50 (HCC 2998) was > 100 µM (inactive) and the GI50 (SNB-75) was > 100 µM (inactive). The GI50 (MOLT-4) was > 100 µM (inactive), the GI50 (U-251) was > 100 µM (inactive) and the GI50 (UO-31) was > 100 µM (inactive). For the same compound, the GI50 (HT-29) was > 100 µM (inactive), the GI50 (MCF7) was > 100 µM (inactive) and the GI50 (ACHN) was > 100 µM (inactive). The GI50 (A498) was > 100 µM (inactive), the GI50 (HCT-116) was > 100 µM (inactive) and the GI50 (SF-539) was > 100 µM (inactive). For the same compound, the GI50 (SW-620) was > 100 µM (inactive), the GI50 (PC-3) was > 100 µM (inactive) and the GI50 (HCT-15) was greater than 100 µM. The GI50 (UACC-257) was > 100 µM (inactive), the GI50 (IGROV-1) was > 100 µM (inactive) and the GI50 (M14) was > 100 µM (inactive). For the same compound, the GI50 (OVCAR-5) was > 100 µM (inactive).

Reference: ChEMBL document CHEMBL1201862, “PubChem BioAssay data set” (2004)
